Experiment [1] addresses T1, CTR-ZO-1 interaction (Homo sapiens, UniProt P30988, E471A/S472A/S473A).
T1 construct: PCR generated full length CTRwt and CTRΔESS cDNAs were cloned directionally into pcDNA3.1 mammalian expression vector; FLAG (N); expressed in transfected cells; host or cells: PC-31 / PC-3 cells stably expressing FLAG-CTRwt; ZO-1 is the cells' own
T1 sequence (P30988 with tags, fused parts or gaps): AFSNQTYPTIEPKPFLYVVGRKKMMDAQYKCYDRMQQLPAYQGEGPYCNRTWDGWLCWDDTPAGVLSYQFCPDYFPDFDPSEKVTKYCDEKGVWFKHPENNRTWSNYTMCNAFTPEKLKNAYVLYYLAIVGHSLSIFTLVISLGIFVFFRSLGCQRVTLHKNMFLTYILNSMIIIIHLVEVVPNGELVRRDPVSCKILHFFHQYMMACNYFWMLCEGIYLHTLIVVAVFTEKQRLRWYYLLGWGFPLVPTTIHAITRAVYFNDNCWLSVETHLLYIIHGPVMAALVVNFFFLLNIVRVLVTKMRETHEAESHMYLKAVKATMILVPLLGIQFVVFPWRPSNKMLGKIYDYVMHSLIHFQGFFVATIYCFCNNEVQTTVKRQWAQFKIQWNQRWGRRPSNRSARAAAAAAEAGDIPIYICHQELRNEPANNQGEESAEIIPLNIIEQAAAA
Kind of experiment: In situ proximity ligation assay (PLA). The settings on record: PC-3CTRΔESS cells, with or without CT. Type of experiment: cell-based. The procedure:
(§1) Fixed PC cells or tissues were immunolabeled with primary antibodies (anti-rabbit ZO-1 serum and anti-goat CTR serum) for overnight at 4° C. The secondary antibodies with attached PLA probes were supplied in the Duolink™ kit (Olink Bioscience, Uppsala, Sweden). CTR-ZO-1 interaction was observed by confocal microscopy at 400×. A red fluorescent dot indicated the two proteins are within 35 nm distance. The number of dots per cell was determined by Blobfinder™ image analysis software (Allalou et al., 2009).
(§2) Next, CTR-ZO-1 interaction was examined in PC-3CTRwt cells. […] Each dot represents an interaction between activated CTR and ZO-1, detected by in situ PLA™ using the Duolink® kit. Nuclei were stained with DAPI. The graph presents quantitative data of CTR-ZO-1 interactions in three separate but identical experiments (mean±SEM; n=6, p<0.001, paired t-test). […] Next, this phenomenon was examined in LNCaP cells, which are androgen-responsive and endogenously express CTR but not CT (Karpova et al., 2006). […] Finally, non-metastatic and metastatic PC specimens were examined in a similar experiment.
(§3) Since CTR directly interacts with ZO-1 through PDZ domain, whether CT-induced endocytosis of ZO-1 is caused by CTR-mediated events prior to or subsequent to CTR-ZO-1 interaction was tested. To determine the time course of CTR-ZO-1 interaction, in situ PLA assay was used (FIG. 15D). […] Representative micrographs are shown of CTR-ZO-1 interactions in PC-3CTRwt cells at various time periods (0-300 seconds) after CT stimulus. Each highlighted dot represents an interaction between activated CTR and ZO-1, detected by in situ PLA™ using the Duolink® kit. Nuclei were stained with DAPI. The line graph presents the mean±SEM of dots at each time point (n=6). […] Considering that ZO-1 endocytosis was observed after 1 minute of CT stimulus, it is conceivable that CTR-mediated events subsequent to CTR-ZO-1 interaction may be associated with TJ protein endocytosis.

Experiment [2] deals with T2, CTR-ZO-1 interaction (Homo sapiens, UniProt P30988).
T2 construct: PCR generated full length CTRwt and CTRΔESS cDNAs were cloned directionally into pcDNA3.1 mammalian expression vector; FLAG (N); expressed in transfected cells; host or cells: PC-31 / PC-3 cells stably expressing FLAG-CTRwt; ZO-1 is the cells' own
T2 sequence (P30988 25-474): T1 sequence (P30988 with tags, fused parts or gaps) with A447E, A448S, A449S
Kind of experiment: In situ proximity ligation assay (PLA). Type of experiment: cell-based. Particulars: PC-3CTRwt cells. The procedure: as §1, §2, §3

Experiment [3] concerns CTR-ZO-1 interaction. As to the kind of experiment: In situ proximity ligation assay (PLA). Type of experiment: cell-based. The settings on record: LNCaP cells, CT 50 nM, 30 seconds. The method, then: as §1, §2, §3
Experiment [4] concerns calcitonin receptor (CTR). As to the kind of experiment: cAMP accumulation (radioimmunoassay) in PC-3 CTRwt and PC-3 CTRΔESS cells. Type of experiment: cell-based, human. The settings on record: 3 min. The method, then:
PC-3CTRwt and PC-3CTRΔESS cells were treated with/without 50 nM CT for three min, washed and harvested in lysis buffer (50 mM Tris, pH 7.5, containing 5 mM EDTA, 50 mM NaF, 1 mM sodium pyrophosphate, 0.5 mM EGTA, 10 mM β-mercaptoethanol, leupeptin, 1 μg/ml; and aprotinin, 1 μg/ml). The lysates were analyzed for cAMP levels by radioimmunoassay (Perkin Elmer, Shelton, Conn.).
FIG. 1C depicts photomicrographs showing CTRwt and CTRΔESS (a mutant) localized to the plasma membrane (at 400×) in PC-3 cells. To examine the ability of CTRwt and CTRΔESS to activate its G protein-coupled effectors, the effect of 50 nM CT was examined on cAMP accumulation and PKA and PKC activity. […] FIG. 1D depicts the effect of 50 nM CT on cAMP accumulation in PC-3 CTRwt and PC-3 CTRΔESS cells stimulated with or without 50 nM CT for 3 min. The cells were lysed, and the lysates were analyzed for cAMP levels by radioimmunoassay (*p<0.01 (paired t-test)).
The effect of CT on cAMP was further tested in a dose-response study where the response to CT at multiple doses (between 0-100 nM) was examined. FIG. 1G depicts cAMP accumulation in PC-3 CTR and PC-3 CTRΔESS cells in response to CT at multiple doses (between 0-100 nM) stimulated for 3 min (*p<0.01 (One-way ANOVA and Newman-Keuls test)).
In general terms: Cyclic AMP is a second messenger, typically raised through Gs and lowered through Gi signalling.

Changes are numbered by the printed parent chain.

Consider calcitonin [CT], for which the “CTR-ZO-1 interactions (PLA dots)” value at CTR-ZO-1 interaction [1] is “no CTR-ZO-1 interactions were observed”; on CTR-ZO-1 interaction [2] (50 nM CT, 30 seconds) it was “eighty-fold increase”; in the experiment with CTR-ZO-1 interaction [3] it was “strong interaction”. For the same substance, the “time of peak CTR-ZO-1 interaction after CT stimulus” value on CTR-ZO-1 interaction [2] was determined as 30 s. Also, the cAMP accumulation result in experiment [4] (50 nM CT, PC-3 CTRwt and PC-3CTRΔESS cells) is on record as “stimulated cAMP production”. The “cAMP accumulation, dose-response” value in experiment [4] (CT 0-100 nM, CTRwt and CTRΔESS cells, all doses) was “significantly increased”.

The values are drawn from patent US9765115B2, “Inhibitors of metastasis, methods of generating such inhibitors and their therapeutic applications” (Board of Supervisors of Louisiana State University acting …, priority 2011, dated 2017).
